Test results published in US8486594B2, “P-terphenyl compound mixture and electrophotographic photoreceptors made by using the same” (Hodogaya Chemical Co., Ltd., priority 2006, dated 2013).

How the values were obtained:
[1] = Dissolution of charge-transporting agent in tetrahydrofuran solution of polycarbonate resin for charge-transporting layer; assay type: physicochemical; conditions: 12.2% tetrahydrofuran solution of polycarbonate resin (Yupilon Z), ultrasonic wave
Procedure: The p-terphenyl compound mixture was completely dissolved by propagating an ultrasonic wave thereto. This solution was applied to the charge-generating layer with a wire-wound bar and dried at 110° C. and ordinary pressure for […] to form a charge-transporting layer having a thickness of 20 μm. Thus, Photoreceptor No. 1 was produced.
Photoreceptor No. 6 was produced in the same manner as in Photoreceptor Example 1, except that the p-terphenyl compound singly synthesized as Compound No. 6 was used in place of the charge-transporting agent used in Photoreceptor Example 1.
Photoreceptor No. 7 was produced in the same manner as in Photoreceptor Example 1, except that the p-terphenyl compound singly synthesized as Compound No. 9 was used in place of the charge-transporting agent used in Photoreceptor Example 1.
The p-terphenyl compound mixture was completely dissolved by propagating an ultrasonic wave thereto. This solution was applied to the charge-generating layer with a wire-wound bar and dried at 110° C. and ordinary pressure for 30 minutes to form a charge-transporting layer having a thickness of 10 μm. Furthermore, a semitransparent metal electrode was formed on the charge-transporting layer by vapor deposition to produce Photoreceptor No. 8. […]

[2] = Solubility in organic solvent (tetrahydrofuran); assay type: physicochemical; conditions: 25° C. tetrahydrofuran; % (weight/volume)
Source text: [Solubility in Organic Solvent]
The unit of solubility is % (weight/volume).

dissolution of charge-transporting agent in coating solution [1] | Solubility in tetrahydrofuran [2] | SMILES
did not dissolve | 2.0% | c1ccc(N(c2ccccc2)c2ccc(-c3ccc(-c4ccc(N(c5ccccc5)c5ccccc5)cc4)cc3)cc2)cc1 [Compound No. 9, 4,4′-bis(diphenylamino)-p-terphenyl]
– | 10.0% | Cc1ccc(N(c2ccccc2)c2ccc(-c3ccc(-c4ccc(N(c5ccccc5)c5ccc(C)cc5C)cc4)cc3)cc2)c(C)c1 [Compound No. 4, 4,4′-bis(2,4-dimethyldiphenylamino)-p-terphenyl]
– | 25.0% | Cc1ccc(N(c2ccccc2)c2ccc(-c3ccc(-c4ccc(N(c5ccccc5)c5ccc(C)cc5)cc4)cc3)cc2)cc1 [Compound No. 1, 4,4′-bis(4-methyldiphenylamino)-p-terphenyl]
did not dissolve | 2.0% | Cc1ccc(N(c2ccc(C)cc2)c2ccc(-c3ccc(-c4ccc(N(c5ccc(C)cc5)c5ccc(C)cc5)cc4)cc3)cc2)cc1 [Compound No. 6, 4,4′-bis(4,4′-dimethyldiphenylamino)-p-terphenyl]
